Article PMC4240912, “Multifaceted interplay between lipophilicity, protein interaction and luminescence parameters of non-intercalative ruthenium(II) polypyridyl complexes controlling cellular imaging and cytotoxic properties” (Journal of Biological Inorganic Chemistry, 2014)
Read-outs that look alike come from different tables or passages of the source.

What was measured:
[1] = system: murine endothelial cells isolated from aorta-gonad-mesonephros (AGM) region of 10.5 dpc embryos (MAgEC 10.5); assay: Alamar Blue cell viability, MAgEC 10.5; type: cell-based; settings: MAgEC 10.5, 24 h
Protocol: (§1) FVB mouse lung microvascular endothelial cells (MLuMEC FVB) and murine endothelial cells isolated from aorta-gonad-mesonephros (AGM) region of 10.5 dpc embryos (MAgEC 10.5) were cultured in OptiMEM with Glutamax-I (Gibco Invitrogen) supplemented with 2% fetal bovine serum (FBS), 0.4% gentamycin and 0.2% fungizone. […]
(§2) 10% FBS, 1% peniciline and streptomycin and 0.2% fungizone. Cells were routinely cultured at 37 °C in a humidified incubator in 5% CO2 atmosphere.
(§3) Cell viability was measured using Alamar Blue assay. Cells were seeded on 96 wells plate with density of 1 × 10^4 cells per cm2 and cultured for 1 day. Then cells were incubated with various concentrations of compounds in medium with or without 2% FBS for 24 and 48 h under normoxic and hypoxic conditions in the darkness. Next cells were washed with PBS and incubated in Alamar Blue solution for 3 h. The cell viability was quantified at 605 nm using 560 nm excitation light (VICTOR 3V multilabel plate reader PerkinElmer or Tecan Infinite200 Reader). Experiments were performed in triplicates and each experiment was performed at least three times to get the mean values ± standard derivation. The viability was calculated with regard to the untreated cells control. The IC50 values were determined using Hill equation (Origin 9.0). […]

[2] = system: FVB mouse lung microvascular endothelial cells (MLuMEC FVB); assay: Alamar Blue cell viability, MLuMEC; type: cell-based; settings: 24 h
Protocol: as §1, §2, §3

[3] = system: Human lung adenocarcinoma epithelial cell line (A549); assay: Alamar Blue cell viability, A549; type: cell-based; settings: A549, 24 h
Protocol: as §2, §3

[4] = system: 4T1 breast cancer cell line; assay: Alamar Blue cell viability, 4T1; type: cell-based; settings: 4T1, 24 h incubation
Protocol: 4T1 breast cancer cell line was cultured in RPMI-1640 (Gibco Invitrogen) with 10 % fetal bovine serum (FBS, the bovine serum albumin is a major component), 1 % penicillin and streptomycin and 0.2 % fungizone. Cells were routinely cultured at 37 °C in a humidified incubator in 5 % CO2 atmosphere. Cell viability was measured using Alamar Blue assay. Cells were seeded on 96-well plate with density of 10^4 cells per cm^2 and cultured for 24 h in medium with or without 2 % serum. Then cells were incubated with various concentrations of ruthenium compounds for 24 h in the dark. All used ruthenium complexes were freshly diluted in DMSO and then added to the appropriate medium to obtain the applied concentrations. The final DMSO concentration was kept constant at 0.05 % (v/v). Next cells were washed with PBS and incubated in AlamarBlue solution (21 times diluted in PBS) for 3 h. Alamar Blue test is based on the reduction of blue and non-fluorescent subtract (resazurin) to a pink and highly fluorescent product (resorufin) by the alive cells. Extract mechanism of the reduction is still unknown, but it is postulated that reduction occurs by mitochondrial or cytoplasmic enzymes, such as NADH dehydrogenase or diaphorase. It is still not known whether this process occurs intracellularly, at the plasma membrane surface or just in the medium as a chemical reaction. The cell viability was quantified at 605 nm using 560 nm excitation light (VICTOR 3V multilabel plate readers, PerkinElmer). Experiments were performed in triplicates and each experiment was performed at least three times to get the mean values ± standard deviation. The viability was calculated with regard to the untreated cells control. The IC50 values were determined using Hill equation (Origin 9.0): y=y0+y100-y0c^H/IC50^H+c^H

[5] = aqueous solution, cited from earlier work

N.N.[Cl][Pt][Cl] [Cisplatin, reference compound]
IC50 ([1]; with serum (2%)): 8.75 ± 0.2 µM
IC50 ([1]; without serum): 9.38 ± 0.67 µM
IC50 ([2]; with serum (2%)): 14.5 ± 1.4 µM
IC50 ([2]; without serum): 24.6 ± 2.89 µM
IC50 ([3]; with serum (2%)): 71.3 ± 22.9 µM
IC50 ([3]; without serum): 126 ± 30.5 µM
IC50 ([4]; medium with serum (2 %)): 59.8 ± 8.32 µM
IC50 ([4]; medium without serum): 73 ± 14.9 µM

[Ru+2].c1ccc(-c2ccccn2)nc1.c1ccc(-c2ccccn2)nc1.c1ccc(-c2ccccn2)nc1 [[Ru(bpy)3]^2+, reference compound]
Φ, quantum yield of luminescence (standard) ([5]; air-equilibrium conditions, ref [14]): 0.028
Φ, quantum yield of luminescence (standard) ([5]; deoxygenated conditions, ref [20]): 0.042
